From publication PMC11249646, “Small-Molecule Disruptors of the Interaction between Calcium- and Integrin-Binding Protein 1 and Integrin αIIbβ3 as Novel Antiplatelet Agents” (ACS Pharmacology & Translational Science, 2024)
Values after ≈ are worked out from the molar mass of the structure shown. Like-named read-outs stand apart in the source and are kept apart here.

How the values were obtained:
[1] = target: T1, CIB1 and αIIb interaction (GST-CIB1 : F-αIIb peptide) (Homo sapiens, UniProt Q99828); assay: FP assay, 384-well format (screen); assay type: binding; details: 384-well FP assay
T1 construct: made in house; host or cells: BL-21 plus RIL cells (E. coli)
T1 sequence (Q99828 1-191): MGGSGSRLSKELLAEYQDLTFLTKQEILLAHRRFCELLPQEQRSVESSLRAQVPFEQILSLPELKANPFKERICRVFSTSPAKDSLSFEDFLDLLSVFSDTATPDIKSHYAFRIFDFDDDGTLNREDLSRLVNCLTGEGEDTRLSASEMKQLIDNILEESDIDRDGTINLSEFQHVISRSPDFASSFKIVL

[2] = target: T2, CIB1 and αIIb interaction (CIB1-GST : F-αIIb peptide) (Homo sapiens, UniProt Q99828); assay: FP assay, 1536-well qHTS format (primary and confirmatory screen); assay type: binding; details: for Confirm? (confirmatory screen): YES/NO; for Curve Class (confirmatory screen): qHTS curve class; for Efficacy (%): negative = inhibition
T2 construct: made in house; host or cells: BL-21 plus RIL cells (E. coli)
T2 sequence (Q99828 1-191): T1 sequence (Q99828 1-191)

[3] = target: T3, GST-CIB1 : F-scrambled peptide (Homo sapiens, UniProt Q99828); assay: FP scrambled-peptide counter screen, 1536-well format; assay type: binding; details: counterscreen; for Curve Class (counterscreen): qHTS curve class, negative sign = inhibitory curve; for IC50: read-out: IC50 [μM] (counterscreen)
T3 construct: made in house; host or cells: BL-21 plus RIL cells (E. coli)
T3 sequence (Q99828 1-191): T1 sequence (Q99828 1-191)

washed human platelets = assay: Human platelet aggregation assay (thrombin-induced); assay type: cell-based; details: for inhibition at 10 µM: Homo sapiens, Platelet, single concentration of 10 μM (n = 3), thrombin; for Thrombin Assay 10 µM (%): platelet aggregation inhibition at 10 µM
Excerpt: A classical challenge in target-based drug discovery is moving from biochemical to cellular assay and the essential step of determining if the compounds of interest can perform in a cellular context. After characterization of the compounds in a series of biochemical assay formats, our next step was to assess their activity in a cellular environment. Our previous studies have shown that the interaction of the cytoplasmic domain of integrin αIIbβ3, a key regulator of platelet aggregation, with CIB1, is involved in downstream signaling in platelet activation and aggregation. We sought to determine whether our candidate compounds were inhibiting this interaction by evaluating them for platelet function in a human platelet aggregation assay. We prepared platelet-rich plasma (PRP) and washed the platelets as previously described[44] and then performed a platelet aggregation assay using the washed platelet suspensions (2 × 10^8/platelets/mL) followed by the recording of aggregation traces (see Materials and Methods Section). To induce platelet aggregation, 0.03 U/mL of thrombin, a physiological agonist of platelet activation, was used.
Figure 6 Effect of compounds on human platelet activation. Representative platelet aggregation tracings of washed human platelet suspensions pretreated for 30 min at 37 °C with vehicle (DMSO) or compounds at indicated concentrations followed by activation with thrombin (0.03–0.1 U/mL). Panel (A): NCGC00071855. Panel (B–D): NCGC00351170. Panel (E): CD62P exposure was in the presence of NCGC00351170. Data represents mean ± SEM, n = 4 individual experiments; ns = non significant *P < 0.05, ***P < 0.001, ****P < 0.0001.
Whole blood was drawn by venipuncture from healthy adult volunteers (of both gender and race) with informed consent. Approval was obtained from the institutional review boards of Thomas Jefferson University, according to the Declaration of Helsinki. Blood was collected in acidified citrate dextrose as an anticoagulant. Platelet-rich plasma (PRP) and washed platelets were prepared, as previously described.[44] Platelet aggregation was performed using washed platelet suspensions containing 2 × 10^8 platelets/mL using a Chrono-Log Lumi-Aggregometer (Chrono-Log), as described previously.[11] Aggregation traces were recorded by using Aggrolink software (Chrono-Log). Thrombin-induced P-selectin (CD62P) exposure was performed using Accuri C6 flowcytometer (BD Bioscience) as described previously.[11]
Figure S9: Effect of compounds on human platelet activation. Representative platelet aggregation
tracings of washed human platelet suspensions treated with vehicle (DMSO) or indicated
compounds at 10 μM for 30 minutes at 37 °C followed by activation with thrombin (0.03U/mL).

[4] = In vitro ADME: solubility; assay type: physicochemical
[5] = In vitro ADME: PAMPA permeability
[6] = Table 1, read-out: FP assay IC50
[7] = confirmatory screen, negative sign = inhibitory curve
[8] = confirmatory screen, read-out: IC50 [μM] (confirmatory screen)
[9] = qHTS primary screen hits, Table S2
[10] = qHTS primary screen hits, Table S2, read-out: IC50

| Structure (SMILES) | IC50 [1, 6] | solubility [4] | PAMPA [5] | IC50 ([1]; log of IC50 in M (negative values), read-out: FP Assay LOG IC50 (converted)) | Efficacy (%) (confirmatory screen) ([2]; confirmatory screen) | Confirm? (confirmatory screen) ([2]; confirmatory screen) | Curve Class (confirmatory screen) [2, 7] | IC50 [2, 8] | Efficacy (%) ([2]; qHTS FP screen hits, Table S2) | IC50 ([2]; qHTS FP screen hits, Table S2, read-out: IC50) | Efficacy (%) (counterscreen) [3] | Curve Class (counterscreen) [3] | IC50 [3] | inhibition at 10 µM (washed human platelets) | Thrombin Assay 10 µM (%) (washed human platelets) | solubility ([4]; read-out: Solubility) | Papp [5] | Efficacy (%) [2, 9] | Curve Class ([2]; qHTS primary screen hits, Table S2, negative sign = inhibitory curve, several classes where COUNT > 1) | IC50 [2, 10] |
| --- | --- | --- | --- | --- | --- | --- | --- | --- | --- | --- | --- | --- | --- | --- | --- | --- | --- | --- | --- | --- |
| COc1ccc(C(=O)c2no[n+]([O-])c2C(=O)c2ccc(OC)cc2)cc1.O=C(O)C(F)(F)F [NCGC00064079-03] | 4.53 µM |  |  |  | -37% | YES | -1.4 | 6.3 µM | -27% | 8.9 µM | -30% | -1.4 | 3.2 µM | 99% | 99% | 9 µg/mL | 285 ×10⁻⁶ cm/s |  |  |  |
| O=C(O)C(F)(F)F.O=C(c1cccs1)c1no[n+]([O-])c1C(=O)c1cccs1 [NCGC00071855-05] |  |  |  |  |  |  |  |  |  |  |  |  |  |  |  | 18 µg/mL | 187 ×10⁻⁶ cm/s | -48% | -1.2 | 11.6 µM |
| O=C(O)C(F)(F)F.O=C(c1ccc(F)cc1)c1no[n+]([O-])c1C(=O)c1ccc(F)cc1 [NCGC00351162-01] |  |  |  |  | -69% | YES | -1.2 | 12.6 µM |  |  | -68% | -2.2 | 35.5 µM |  |  | > 49 µg/mL | 6.01 ×10⁻⁶ cm/s |  |  |  |
| O=C(c1ccc(F)cc1)c1no[n+]([O-])c1C(=O)c1ccc(F)cc1 [NCGC00351162-02] | 7.5 µM |  |  | 7.41 µM |  |  |  |  |  |  |  |  |  | 97% | 97% | 34 µg/mL (≈ 103 µM) |  | -58% |  | 26.6 µM |

Continued, in another order:

| IC50 [1, 6] | solubility [4] | PAMPA [5] | IC50 ([1]; log of IC50 in M (negative values), read-out: FP Assay LOG IC50 (converted)) | Structure (SMILES) | Efficacy (%) (confirmatory screen) ([2]; confirmatory screen) | Confirm? (confirmatory screen) ([2]; confirmatory screen) | Curve Class (confirmatory screen) [2, 7] | IC50 [2, 8] | Efficacy (%) ([2]; qHTS FP screen hits, Table S2) | IC50 ([2]; qHTS FP screen hits, Table S2, read-out: IC50) | Efficacy (%) (counterscreen) [3] | Curve Class (counterscreen) [3] | IC50 [3] | inhibition at 10 µM (washed human platelets) | Thrombin Assay 10 µM (%) (washed human platelets) | solubility ([4]; read-out: Solubility) | Papp [5] | Efficacy (%) [2, 9] | Curve Class ([2]; qHTS primary screen hits, Table S2, negative sign = inhibitory curve, several classes where COUNT > 1) | IC50 [2, 10] |
| --- | --- | --- | --- | --- | --- | --- | --- | --- | --- | --- | --- | --- | --- | --- | --- | --- | --- | --- | --- | --- |
|  | 14 µg/mL (≈ 45.7 µM) | 153 10-6 cm/s |  | O=C(c1cccs1)c1no[n+]([O-])c1C(=O)c1cccs1 [NCGC00071855-06] |  |  |  |  |  |  |  |  |  |  |  |  |  |  |  |  |
| 20.7 µM |  |  |  | O=C(c1cccc(OCc2ccccc2)c1)c1no[n+]([O-])c1C(=O)c1cccc(OCc2ccccc2)c1 [NCGC00351160-01] |  |  |  |  |  |  |  |  |  | 49% | 49% | 5 µg/mL (≈ 9.87 µM) | 5.74 ×10⁻⁶ cm/s |  |  |  |
